The test concerns FAM-(CUG)10-BHQ (RNA, repeat) GCGCUGCUGCUGCUGCUGCUGAAAAGCUGCUGCUGCUGCUGCGC
The test can be described thus: FAM/BHQ fluorescence thermal melting. The following applies: 5 μM compound.

Consider `CC1CCCn2cc(-c3cccc(NC(=O)CCCCCCNCCCCNCCCCCCC(=O)Nc4cccc(-c5cn6c(n5)C(C)CCC6)c4)c3)nc21` (stereo not shown), for which the ΔTm – broadly, the change in melting temperature against a reference sample – was 3.1 ± 0.7 °C.

The values are drawn from article PMC12455570 (2025).
